In patent US20100317736A1, “COMPOSITION OF THE SKIN EXTERNAL APPLICATION OR THE FOOD FOR ACCELERATING PROLINE RECYCLING BY CONTAINING THEANINE” (priority 2007, published 2010):

Tests used:
Human fibroblasts [1] = assay: Total collagen biosynthesis in dermal cells (L-[3H]-proline incorporation); format: cell-based; settings: 1 mM theanine, 24 hours, relative to 100 of control group, FIG. 4
Method: 5×10^4 of human fibroblasts were cultured in 24 well plates. The medium was replaced with a medium containing 164 kBq/ml L-[^3H]-proline and supplemented with theanine in a concentration either 0.01, 0.1, 1 or 10 mM. After incubation of 24 hours, the cells were harvested, disrupted and treated with collagenase to separate collagen. Then, the amount of ^3H increased by the treatment with theanine was determined using a liquid scintillation counter and compared to that of the control group which had not been treated with theanine. Without regard to the collagen type, the total collagen amount was measured and the data described in FIG. 4 are calculated relative to 100 of the control group. As a result, it was confirmed that the total collagen biosynthesis was increased by about 45% when treated with 1 mM of theanine.

type 1 collagen = assay: Immunohistochemistry of type 1 collagen in skin tissue; format: in vivo, mice; settings: 500 mg theanine per kg oral, 5 weeks, UV, versus Comparative Example 3, FIG. 8
Method: This example was performed using the hairless mice of Example 2 and Comparative Example 2 to 3, which had been used in Experiment Example 6 and histopathological observation was performed by immunohistochemistry. The skin on the back of the hairless mice was taken, fixed in 10% neutral formalin and subjected to immunohistochemistry using monoclonal IgG1 antibody to examine the expression of type 1 collagen in the skin tissue.

[2] = tested on: SKH-1 female hairless mice; assay: Collagen biosynthesis in hairless mice, closed patch test, western blotting; format: in vivo; settings: cream of Example 1 (theanine 1) on back skin, closed patch test 2 weeks, versus Comparative Example 1, FIG. 5
Description: In order to examine the effect of improving skin wrinkle of theanine, SKH-1 female hairless mice, about 7 weeks old, were subjected to a closed patch test for 2 weeks. Each cream of Example 1 and Comparative Example 1 was applied on the back skin of the hairless mouse and after the closed patch test, the skin was biopsed. Proteins were separated from the biopsed skin and assessed for collagen by western blotting.

[3] = tested on: female hairless mice (SKH, HR-1); assay: H&E staining, thickness of the epidermal layer; format: in vivo; settings: for Thickness of epidermal layer: 500 mg theanine per kg oral, 5 weeks, UV
Method: In addition, the H&E (heamatoxylin & eosin) staining assay was performed for observation of general tissue condition and measurement of thickness of the epidermal layer. The thickness of the epidermal layer was measured at 10 different spots randomly selected per tissue by observing the H&E stained slide under the microscope with 100× magnification and the average value was shown in Table 3.

[4] = tested on: female hairless mice (SKH, HR-1); assay: Inhibition of photoaging in hairless mouse, oral administration, replica / SkinVisiometer; format: in vivo; settings: 500 mg theanine per kg oral, 5 weeks, UV total 600 mJ/cm^2, versus Comparative Example 3, FIG. 7
Description: In order to examine the effect of orally administered theanine on photoaging, hairless mice were used as animal models for this experiment. As described in Table 2, 6 to 7 week old female hairless mice (SKH, HR-1) were divided into 3 groups of Comparative Example 2 (normal group), Comparative Example 3 (UV control group) and Example 2 (UV/theanine treatment group), each group having 8 mice and were raised for the experiment period.
The mice of Comparative Example 2 and Comparative Example 3 were orally administered with 0.5 ml of saline and the mice of Example 2 were administered with 500 mg of theanine, based on the solid faction, per kg of body weight dissolved in 0.5 ml of saline using a syringe for liquid injection. The administration was continued for total 5 weeks and performed at the predetermined time for 5 days per week. From 2 weeks through 5 weeks after the administration had started, the groups of Comparative Example 3 and Example 2 were irradiated by UV under conditions similar to solar light three times per week. Here, the total UV irradiation for the experiment period was set to 600 mJ/cm^2. In order to objectively judge the effect of improving wrinkle, a replica was taken from the back of each hairless mouse prior to an autopsy. The skin surface was imaged using SkinVisiometer to compare and rates the degree of the skin wrinkles.

Human fibroblasts [5] = assay: Cell viability (MTT); format: cell-based; settings: 1, 10, 100, 1000 and 10000 μM theanine, 24 hours, FIG. 2
Method: 2×10^3 of human fibroblasts were cultured in a 96 well plate, treated with 1, 10, 100, 1000 and 10000 μM of theanine and incubated for 24 hours. 3-(4,5-dimethylazol-2-yl)-2,5-diphenyl-2H-tetraazoliumbromide (MTT) was added to the concentration of 0.5 mg/ml and further incubated for 4 hours.

prolidase = assay: Prolidase activity in dermal cells (Chinard reaction, Gly-Pro substrate); format: cell-based, human; settings: 0.01, 0.1, 1, 2 or 10 mM theanine, 24 hours, versus untreated control, FIG. 3
Method: 10^5 of human fibroblasts were cultured in 6 well plates for 6 days. The medium was replaced with heat-inactivated fetal bovine serum and then incubated for an additional 24 hours. The medium was again replaced with a culture medium containing either 0.01, 0.1, 1, 2 or 10 mM of theanine. After 24 hours, the cells were harvested and subjected to the Chinard reaction. The cells were ultrasonically disrupted and centrifuged at 100,000×g for 15 minutes. The supernatant was collected and mixed with 2 mM MnCl2 in the same amount for the prolidase reaction. The mixture was pre-reacted at 37° C. for 24 hours. 94 mM glycine-proline (Gly-Pro) dipeptide as a substrate of the prolidase reaction was added thereto in the same amount of the pre-reacted mixture and reacted at 37° C. for 1 hours. Then, the reaction was ended by adding 0.45M TCA. The enzymatic activity of prolidase was determined by quantifying proline, which is isolated by prolidase, by the color development using ninhydrin reagent. The enzyme activity was shown as a value calculating the equation of amount of isolated proline over protein weight over time (Mol/min/mg) and the result is shown in FIG. 3.

Human fibroblasts [6] = assay: Procollagen biosynthesis in dermal cells (ELISA); format: cell-based; settings: 48 hours, FIG. 1
Method: Human fibroblasts are cultured in the concentration of 10^4 in 48 well plates. The medium of the plates was replaced with a culture medium containing either 10 μM of vitamin C or 10 μM of transforming growth factor-β (TGF-β) and a culture medium containing either 0.1, 1, 10 or 100 μM of theanine. After culturing for 48 hours, the supernatants were harvested and synthesized procollagen was quantified using the ELISA (Takara MK101) method. The data were calculated relative to 100 of control group without containing the above substances and the result was shown in FIG. 1.

`CCNC(=O)CC[C@H](N)C(=O)O` [theanine] was tested, and the “increase of total collagen biosynthesis” value (Human fibroblasts [1]) was “about 45%”, the “type 1 collagen staining in skin tissue” value (type 1 collagen) was “more collagen was stained in the epidermal and dermal junction” and the “collagen biosynthesis in skin (western blotting)” value [2] was “increased the collagen biosynthesis in the hairless mice”. The “Thickness of epidermal layer” value [3] was 77.4%, the Thickness of epidermal layer ([3]; average of 10 spots per tissue, the values are: epidermal thickness) was 7.56 ± 0.75 µm and the “decrease in the thickness of the epidermal layer” value ([3]; compared to the UV control group (Comparative Example 3)) was “about 23%”. The “density and depth of the wrinkles on the skin surface” value [4] was “alleviated as compared to those of Comparative Example 3”, the “cell viability / toxicity (MTT)” value (Human fibroblasts [5]) was “not toxic at all” and the “prolidase activity (amount of isolated proline)” value (prolidase) was “concentration-dependently increased”. For the same compound, the procollagen production (Human fibroblasts [6]; 0.1, 1, 10 or 100 μM theanine, relative to 100 of control group) was “increased collagen production of fibroblast concentration-dependently” and the “procollagen production compared with positive controls” value (Human fibroblasts [6]; versus 10 μM vitamin C or 10 μM TGF-β) was “higher procollagen production than the positive control groups”.
